Series [1] relates to normonatremic Sprague-Dawley rats. The experiment in a line: Effects of s.c. administration on metabolic parameters in normonatremic rats. Format: in vivo, rat.
Series [2] has as its system control rats. The experiment in a line: Plasma AVP and apelin-IR levels in control rats (RIA). Format: in vivo, rat. Also noted: Apelin / AVP: unit not given here. As to the method:
187 Apelin radioimmunoassay
189 until use for apelin RIA.
The supernatants were collected and
The samples were dried and dissolved in
201 centrifuged (17000 x g, 4°C, 20 min). The supernatant (4 ml) was collected, and mixed with
The columns were then treated as described in
Samples (0.1ml) w ere mixed with 125I-
212 used this radioligand instead of [Glp65, Nle75, Tyr77] [125I]-apelin13 since the substitution of
214 derivatives as described previously by 3,4.
216 incubated for 10 min at room temperature.
This antiserum identified the apelin present in the
Most of the apelin in human plasma was
252 TechMedILL platfor m (Illkirch) reviewed and approved by the agriculture ministry regulating
256 Male Sprague-Dawley rats were killed by decapitation, and trunk blood was collected on ice
257 (into 50 µl of 0.3M EDTA (pH 7.4) per 1 ml of blood). Samples were centrifuged (2,600 x g,
258 4°C, 20 min), and the resulting plasma was split into 500 µl aliquots, to which we added 168
259 µl of 3N HCl before storage at -80°C. The AVP RIA was performed as previously described
260 5, using a specific AVP-[Arg8] antibody (final dilution, 1/4.5) and [125I]-(Tyr2Arg8)-AVP
261 (2200 Ci/mmol, Perkin-Elmer, Billerica, MA; 15000 dpm) as a tracer. […]

For series [3], the system named is kidneys of normonatremic Sprague-Dawley rats. The experiment in a line: Kidney histology after 4 days of s.c. administration in rats. It counts as in vivo, rat. Also noted: Tubular injury score: scale not given here. The procedure: 278 Kidneys were fixed in paraformaldehyde 4% overnight and processed for paraffin embedding.
279 Sections of 4 μm thickness were made and stained with the periodic acid-Schiff (PAS)
280 reagent and counterstained with hematoxylin. Histological analyzes were performed by a
281 trained nephrologist (AF), blinded of the treatment group. Tubular injury score was scored
283 vacuolization, epithelial cell shedding, and denuded tubular basement membrane, as follows:
285 calculated from twenty viewing fields selected randomly from the outer medulla and
286 corticomedullary junction and were examined at ×400 magnification. […]

The conditions of series [4]: in plasma; cited from earlier work.
The mark [5] stands for this setting: 900 nmol/kg SC (tolvaptan 0.4.SC [sic]), normonatremic rats, single animals.

The structures appear in SMILES notation. Where “and” joins values, the source holds several entries; their conditions need not be identical. Equal values may be shown once.

On to `CSCC[C@H](NC(=O)[C@@H]1CCCN1C(=O)CNC(=O)[C@H](CCCCN)NC(=O)[C@H](Cc1c[nH]cn1)NC(=O)[C@H](CO)NC(=O)[C@H](CC(C)C)NC(=O)[C@H](CCCNC(=N)N)NC(=O)[C@@H]1CCCN1C(=O)[C@H](CCCNC(=N)N)NC(=O)[C@H](CCC(N)=O)NC(=O)[C@H](CCCNC(=N)N)NC(=O)[C@H](CCCNC(=N)N)NC(=O)[C@H](Cc1ccccc1)NC(=O)[C@H](CCCCN)NC(=O)CCC(F)(F)C(F)(F)C(F)(F)C(F)(F)C(F)(F)C(F)(F)C(F)(F)C(F)(F)F)C(=O)N1CCC[C@H]1C(=O)N[C@@H](Cc1ccccc1)C(=O)O` [LIT01-196], for which, in series [1] (setting [5]), the “Urine osmolality (3 hours)” value is 1384 and 748 and 940 and 740 and 756 and 732; the “Urine osmolality (6 hours)” value was 356 and 1028 and 440 and 1112 and 752 and 680; the “Urine osmolality (24 hours)” value was 1095 and 2308 and 2437 and 1605 and 969 and 1304 and 1184 and 540 and 808 and 632 and 904 and 972 and 1020 and 1112 and 960 and 572 and 760 and 772 and 928 and 708 and 1220 and 1508. For the same compound, in series [1] (900 nmol/kg s.c., 24 h), the “body weight change (weight loss)” value is reported as −1.8%, the “increase in water intake” value is reported as 11% and the “increase in water intake to food intake ratio” value is recorded as 50%. In addition, the “increase in free water excretion fraction” value in series [1] (900 nmol/kg s.c., 24 h, n = 6) is given as 86%. In addition, the “decrease in food (normal chow) intake” value in series [1] (900 nmol/kg s.c., 24 h, non-significant) was determined as 20%. For the same compound, in series [1] (900 nmol/kg s.c., normonatremic rats), the “increase in 24-h urine output relative to saline” value amounted to 79%. In addition, in series [1] (900 nmol/kg s.c., normonatremic rats, 24 h), the “decrease in urine osmolality” value is listed as 52%. The Water excretion fraction in series [1] (LIT01-196 900 nmol/kg SC, individual animals (Fig. S4C source data)) was 0.8192 and 1.335 and 0.9524 and 0.95 and 0.8692 and 1.016. Further, in series [1] (LIT01-196 900 nmol/kg SC, individual animals (Fig. S4D source data)), the Sodium excretion fraction was 0.6321 and 0.5196 and 0.512 and 0.526 and 0.4023 and 0.292. The Sodium excretion fraction result in series [1] (LIT01-196 900 nmol/kg, tolvaptan 6700 nmol/kg s.c., 24 h) was “not changed”. The “Water to food ratio” value in series [1] (normonatremic rats, 900 nmol/kg SC, individual animal values (source data Fig. 4L)) is 1.9011 and 2.746 and 2.674 and 1.755 and 1.9235 and 1.556 and 1.545. Further, in series [2] (3 h after 900 nmol/kg s.c.), the “plasma apelin-IR levels, higher than in control rats” value is listed as 185% and the “plasma apelin/AVP ratio, higher than in control rats” value was 105%. Besides, the “plasma AVP levels, higher than in animals receiving saline” value in series [2] (3 h after s.c., tolvaptan 6700 nmol/kg, LIT01-196 900 nmol/kg) was 37%. Besides, the AVP in series [2] (plasma AVP, LIT01-196 900 nmol/kg SC, individual animals (Fig. S4F source data)) was 22.8083 and 24.884 and 19.0278 and 19.6598 and 20.1271 and 24.6505 and 19.9264. In addition, the Apelin in series [2] (plasma apelin-IR, LIT01-196 900 nmol/kg SC, individual animals (Fig. S4E source data)) is 1622 and 1536 and 1658 and 938 and 943 and 1033 and 1679. Moreover, in series [2] (plasma apelin/AVP ratio, LIT01-196 900 nmol/kg SC, individual animals (Fig. S4G source data)), the apelinAVPratio was 71.1145 and 61.7264 and 87.1356 and 47.7116 and 46.8522 and 41.9059 and 84.2603. Moreover, in series [3] (900 nmol/kg SC, individual animals (Fig. S5C source data)), the Tubular injury score was 0.105 and 0.1 and 0.05 and 0.15 and 0. The Glomerular injury score in series [3] (900 nmol/kg SC, individual animals (Fig. S5D source data)) was 0.09091 and 0.1053 and 0.1429 and 0.04762 and 0.05. Moreover, the “histological analysis of the kidneys” value in series [3] (900 nmol/kg s.c. for 4 consecutive days, rats) is listed as “did not reveal any abnormality”. Moreover, in series [4], the plasma half-life was > 24 h.

These data come from paper PMC7804859, “A metabolically stable apelin-17 analog decreases AVP-induced antidiuresis and improves hyponatremia” (Nature Communications, 2021).
